For assay [1], the system named is Radical scavenging activity. The experiment in a line: Antioxidant activity assessed as DPPH radical scavenging activity at 0.1 mg/mL. The format is functional.
In assay [2] the target is T1, Tyrosinase (Agaricus bisporus, UniProt O42713).
T1 sequence (O42713 whole entry): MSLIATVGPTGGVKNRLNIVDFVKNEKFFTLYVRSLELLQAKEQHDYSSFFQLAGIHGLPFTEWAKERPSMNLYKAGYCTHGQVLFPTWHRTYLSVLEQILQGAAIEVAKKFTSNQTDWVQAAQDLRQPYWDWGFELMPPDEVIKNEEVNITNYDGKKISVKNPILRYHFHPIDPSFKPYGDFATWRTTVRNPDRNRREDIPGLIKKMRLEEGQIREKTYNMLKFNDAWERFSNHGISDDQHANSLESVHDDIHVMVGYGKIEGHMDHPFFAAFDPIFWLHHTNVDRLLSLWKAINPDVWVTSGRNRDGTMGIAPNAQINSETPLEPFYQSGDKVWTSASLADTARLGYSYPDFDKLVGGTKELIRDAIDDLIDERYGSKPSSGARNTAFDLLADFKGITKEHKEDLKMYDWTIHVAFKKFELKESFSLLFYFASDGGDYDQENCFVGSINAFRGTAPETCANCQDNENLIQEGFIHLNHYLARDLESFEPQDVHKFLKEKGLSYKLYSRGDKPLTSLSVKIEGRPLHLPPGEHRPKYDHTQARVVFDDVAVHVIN
Description: Inhibition of mushroom tyrosinase by spectrophotometry

The subject of assay [3] is Radical scavenging activity. The experiment in a line: Antioxidant activity assessed as DPPH radical scavenging activity. It is filed as functional. Background: The DPPH test is a chemical assay of radical scavenging.

Values after ≈ are worked out from the molar mass of the structure shown.

Regarding `O=c1c(O)c(-c2ccc(O)cc2)oc2cc(O[C@@H]3O[C@H](CO)[C@@H](O)[C@H](O)[C@H]3O)cc(O)c12`, in assay [1], the Activity turned out to be 91.2%.
With `CC1=CC(=O)CC(C)(C)C1O` (configuration not stated), in assay [2], inhibition was half-maximal at 1100 µM (IC50).
Same read-out and setting: under `CC1=C(CO)C(C)(C)CC(=O)C1O` (configuration not stated) [CROCUSATIN L] stands 1000 µM.
Regarding `O=C(O)c1ccc(O)c(O)c1`, the Activity in assay [1] was found to be 89.9%.
Take `CC1=C(C=O)C(C)(C)[C@@H](O)[C@H](O)C1` [CROCUSATIN K]: the concentration for half-maximal inhibition (IC50) (commonly the concentration needed to halve the response being measured) in assay [2] was found to be 260 µM.
`Cc1c(C)c2c(c(C)c1O)CC[C@@](C)(CCC[C@H](C)CCC[C@H](C)CCCC(C)C)O2` [ALPHA-TOCOPHEROL]: the concentration for half-maximal inhibition (IC50) in assay [3] came out at 150 µg/mL (≈ 348 µM).
In the case of `O=c1c(O)c(-c2ccc(O)cc2)oc2cc(O)cc(O)c12`, the Activity in assay [1] stood at 86.5%.

Source of the values: ChEMBL document CHEMBL1146507, “Antityrosinase principles and constituents of the petals of Crocus sativus” (J Nat Prod, 2004).
